“And” between values parts separate entries of the source, which are not always exact repeats. Equal values may be shown once. Inconclusive results and toxic doses are left out. Bridge positions count the residues as written; N and C are the ends. Peptide text beside a SMILES is read from it. I, II: the chains in the order shown.
System: L1210 leukemia ip in BDF1 mice, survival T/C
Assay: NCI In Vivo Anticancer Drug Screen. Data for tumor model L1210 Leukemia (intraperitoneal) in B6D2F1 (BDF1) mice
Conditions: endpoint: mean survival time, higher = longer survival
How it was run: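 Each compound was tested against a transplantable tumor grown in mice. The endpoint was survival, with treated animals benchmarked against vehicle controls as a simple ratio.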

[1] = dose: 100.0 mg/kg/injection, schedule: Q04DX002 (ip), vehicle: Klucel (hydroxypropylcellulose) (HPC)
[2] = dose: 200.0 mg/kg/injection, schedule: Q04DX002 (ip), vehicle: Klucel (hydroxypropylcellulose) (HPC)
[3] = dose: 400.0 mg/kg/injection, schedule: Q04DX002 (ip), vehicle: Klucel (hydroxypropylcellulose) (HPC)
[4] = dose: 6.25 mg/kg/injection, schedule: Q01DX009 (ip), vehicle: Klucel (hydroxypropylcellulose) (HPC)
[5] = dose: 6.25 mg/kg/injection, schedule: Q04DX003 (ip), vehicle: Klucel (hydroxypropylcellulose) (HPC)
[6] = dose: 12.5 mg/kg/injection, schedule: Q01DX009 (ip), vehicle: Klucel (hydroxypropylcellulose) (HPC)
[7] = dose: 12.5 mg/kg/injection, schedule: Q04DX003 (ip), vehicle: Klucel (hydroxypropylcellulose) (HPC)
[8] = dose: 25.0 mg/kg/injection, schedule: Q01DX009 (ip), vehicle: Klucel (hydroxypropylcellulose) (HPC)
[9] = dose: 25.0 mg/kg/injection, schedule: Q04DX003 (ip), vehicle: Klucel (hydroxypropylcellulose) (HPC)
[10] = dose: 100.0 mg/kg/injection, schedule: Q04DX003 (ip), vehicle: saline with Tween-80
[11] = dose: 200.0 mg/kg/injection, schedule: Q04DX003 (ip), vehicle: saline with Tween-80
[12] = dose: 400.0 mg/kg/injection, schedule: Q04DX003 (ip), vehicle: saline with Tween-80

With `COc1ccc(C(CC(=O)c2ccc(C)cc2)Sc2ccccc2N)cc1` (stereo not drawn) as the compound, how does the T/C (dose: 100.0 mg/kg/injection, schedule: Q01DX005 (ip), vehicle: Klucel (hydroxypropylcellulose) (HPC)) read?
The T/C was 108 % of control.

What about the T/C (dose: 100.0 mg/kg/injection, schedule: Q01DX009 (ip), vehicle: Klucel (hydroxypropylcellulose) (HPC)) of the same compound?
The T/C was 94 % of control.

What about the T/C [1] of the same compound?
Its T/C is 98 % of control.

And the T/C (dose: 200.0 mg/kg/injection, schedule: Q01DX005 (ip), vehicle: Klucel (hydroxypropylcellulose) (HPC))?
The T/C was 89 % of control.

What about the T/C (dose: 200.0 mg/kg/injection, schedule: Q01DX009 (ip), vehicle: Klucel (hydroxypropylcellulose) (HPC)) of the same compound?
The T/C was 97 % of control.

And the T/C [2]?
The T/C was 103 % of control.

What about the T/C (dose: 400.0 mg/kg/injection, schedule: Q01DX005 (ip), vehicle: Klucel (hydroxypropylcellulose) (HPC)) of the same compound?
Its T/C is 86 % of control.

What about the T/C (dose: 400.0 mg/kg/injection, schedule: Q01DX009 (ip), vehicle: Klucel (hydroxypropylcellulose) (HPC)) of the same compound?
The T/C was 94 % of control.

And the T/C [3]?
The T/C was 103 % of control.

With `NCC(=O)NC(CSSCC(NC(=O)CN)C(=O)O)C(=O)O` (stereo not drawn) (I: H-Gly-Cys-OH / II: H-Gly-Cys-OH; disulfide I:2-II:2; configuration not given here) as the compound, how does the T/C (dose: 75.0 mg/kg/injection, schedule: Q01DX001 (ip), vehicle: saline) read?
The T/C was 99 % of control.

What about the T/C (dose: 150.0 mg/kg/injection, schedule: Q01DX001 (ip), vehicle: saline) of the same compound?
Its T/C is 102 % of control.

What about the T/C (dose: 300.0 mg/kg/injection, schedule: Q01DX001 (ip), vehicle: saline) of the same compound?
The T/C was 100 % of control.

How did the T/C (dose: 100.0 mg/kg/injection, schedule: Q04DX002 (ip), vehicle: saline) turn out when `Cc1cc(=O)[nH]c(/N=C(\N)Nc2ccc(Cl)cc2)n1` was run?
The T/C was 93 % of control.

And the T/C (dose: 200.0 mg/kg/injection, schedule: Q04DX002 (ip), vehicle: saline)?
Its T/C is 99 % of control.

And the T/C (dose: 400.0 mg/kg/injection, schedule: Q04DX002 (ip), vehicle: saline)?
The T/C was 96 % of control.

What does the source list for `COc1ccc(-n2c(=O)c(N=Nc3ccc(Br)cc3)c(O)n(-c3ccccc3Cl)c2=S)cc1`?
T/C (dose: 37.5 mg/kg/injection, schedule: Q01DX001 (ip), vehicle: Klucel (hydroxypropylcellulose) (HPC)): 110 % of control; T/C (dose: 75.0 mg/kg/injection, schedule: Q01DX001 (ip), vehicle: Klucel (hydroxypropylcellulose) (HPC)): 104 % of control; T/C (dose: 150.0 mg/kg/injection, schedule: Q01DX001 (ip), vehicle: Klucel (hydroxypropylcellulose) (HPC)): 95 % of control

Which results are given for `O=C(Nc1ccccc1Br)c1ccc(Cl)cc1Cl`?
T/C (dose: 75.0 mg/kg/injection, schedule: Q01DX009 (ip), vehicle: Klucel (hydroxypropylcellulose) (HPC)): 96 % of control; T/C [1]: 93 % of control; T/C (dose: 150.0 mg/kg/injection, schedule: Q01DX009 (ip), vehicle: Klucel (hydroxypropylcellulose) (HPC)): 96 % of control; T/C [2]: 107 % of control; T/C (dose: 300.0 mg/kg/injection, schedule: Q01DX009 (ip), vehicle: Klucel (hydroxypropylcellulose) (HPC)): 100 % of control; T/C [3]: 97 % of control

With `CCC(CCN(CC=C(C)C)CC=C(C)C)(C(N)=O)c1cccc2ccccc12` (stereo not drawn) as the compound, how does the T/C [4] read?
The T/C was 96 % of control.

What about the T/C [5] of the same compound?
Its T/C is 107 % of control.

And the T/C [6]?
Its T/C is 101 % of control.

And the T/C [7]?
The T/C was 100 % of control.

What about the T/C [8] of the same compound?
The T/C was 96 % of control.

What about the T/C [9] of the same compound?
The T/C was 102 % of control.

How did the T/C (dose: 50.0 mg/kg/injection, schedule: Q01DX009 (ip), vehicle: saline) turn out when `CCOC(=O)COC` was run?
The T/C was 100 % of control.

What about the T/C (dose: 100.0 mg/kg/injection, schedule: Q01DX009 (ip), vehicle: saline) of the same compound?
The T/C was 96 % of control.

And the T/C (dose: 200.0 mg/kg/injection, schedule: Q01DX009 (ip), vehicle: saline)?
Its T/C is 89 % of control.

With `CCC(O)(CC(=O)O)c1ccccc1` (stereo not drawn) as the compound, how does the T/C (dose: 100.0 mg/kg/injection, schedule: Q01DX009 (ip), vehicle: saline with Tween-80) read?
The T/C was 91 % of control.

And the T/C [10]?
The T/C was 104 % of control.

And the T/C (dose: 200.0 mg/kg/injection, schedule: Q01DX009 (ip), vehicle: saline with Tween-80)?
The T/C was 96 % of control.

What about the T/C [11] of the same compound?
The T/C was 104 % of control.

And the T/C [12]?
Its T/C is 105 % of control.

What does the source list for `COc1cc(C=Nc2ccc3c(c2)nc(C)n3C)ccc1N(CCCl)CCCl`?
T/C [1]: 165 % of control; T/C [2]: 120 % of control; T/C [3]: 89 % of control

With `O=C(CNCc1ccccc1)NC(Cc1ccccc1)c1ccccc1` (stereo not drawn) as the compound, how does the T/C (dose: 100.0 mg/kg/injection, schedule: Q04DX003 (ip), vehicle: Klucel (hydroxypropylcellulose) (HPC)) read?
The T/C was 96 % of control.

What about the T/C [10] of the same compound?
The T/C was 101 % of control.

What about the T/C (dose: 200.0 mg/kg/injection, schedule: Q04DX003 (ip), vehicle: Klucel (hydroxypropylcellulose) (HPC)) of the same compound?
Its T/C is 93 % of control.

What about the T/C [11] of the same compound?
Its T/C is 94 % of control.

And the T/C (dose: 400.0 mg/kg/injection, schedule: Q04DX003 (ip), vehicle: Klucel (hydroxypropylcellulose) (HPC))?
Its T/C is 94 % of control.

And the T/C [12]?
The T/C was 94 % of control.

With `CCOC(=O)C1CC2(c3ccccc3)C(=O)C1(c1ccccc1)C(c1ccccc1)=C2c1ccccc1` (stereo not drawn) as the compound, how does the T/C (dose: 50.0 mg/kg/injection, schedule: Q01DX001 (ip), vehicle: carboxymethylcellulose (CMC)) read?
Its T/C is 100 % of control.

And the T/C (dose: 100.0 mg/kg/injection, schedule: Q01DX001 (ip), vehicle: carboxymethylcellulose (CMC))?
The T/C was 94 % of control.

What about the T/C (dose: 200.0 mg/kg/injection, schedule: Q01DX001 (ip), vehicle: carboxymethylcellulose (CMC)) of the same compound?
Its T/C is 100 % of control.

And the T/C (dose: 400.0 mg/kg/injection, schedule: Q01DX001 (ip), vehicle: carboxymethylcellulose (CMC))?
The T/C was 97 % of control.

What does the source list for `Cc1nc(NCc2ccccc2)c2cc[nH]c2n1`?
T/C (dose: 1.56 mg/kg/injection, schedule: Q01DX009 (ip), vehicle: Klucel (hydroxypropylcellulose) (HPC)): 104 % of control and 111 % of control; T/C (dose: 3.12 mg/kg/injection, schedule: Q01DX009 (ip), vehicle: Klucel (hydroxypropylcellulose) (HPC)): 96 % of control and 105 % of control; T/C (dose: 3.12 mg/kg/injection, schedule: Q04DX003 (ip), vehicle: Klucel (hydroxypropylcellulose) (HPC)): 106 % of control; T/C (dose: 5.0 mg/kg/injection, schedule: Q01DX001 (ip), vehicle: saline): 104 % of control; T/C [4]: 103 % of control and 110 % of control; T/C [5]: 103 % of control; T/C (dose: 10.0 mg/kg/injection, schedule: Q01DX001 (ip), vehicle: saline): 104 % of control; T/C [6]: 100 % of control and 105 % of control; T/C [7]: 111 % of control; T/C (dose: 20.0 mg/kg/injection, schedule: Q01DX001 (ip), vehicle: saline): 116 % of control; T/C [8]: 93 % of control and 97 % of control; T/C [9]: 103 % of control; T/C (dose: 40.0 mg/kg/injection, schedule: Q01DX001 (ip), vehicle: saline): 104 % of control; T/C (dose: 80.0 mg/kg/injection, schedule: Q01DX001 (ip), vehicle: saline): 110 % of control

For `CCNC(C)(C)C(SSSC(c1ccc(Br)cc1)C(C)(C)NCC)c1ccc(Br)cc1` (stereo not drawn), which T/C (dose: 25.0 mg/kg/injection, schedule: Q01DX009 (ip), vehicle: water) is on record?
The T/C was 96 % of control.

What about the T/C (dose: 50.0 mg/kg/injection, schedule: Q01DX009 (ip), vehicle: water) of the same compound?
The T/C was 90 % of control.

What about the T/C (dose: 100.0 mg/kg/injection, schedule: Q01DX009 (ip), vehicle: water) of the same compound?
Its T/C is 88 % of control.

With `O=[As](O)(O)c1ccc(N=NSc2ncnc3nc[nH]c23)cc1` as the compound, how does the T/C (dose: 7.5 mg/kg/injection, schedule: Q01DX015 (ip), vehicle: carboxymethylcellulose (CMC)) read?
Its T/C is 112 % of control.

What about the T/C (dose: 15.0 mg/kg/injection, schedule: Q01DX015 (ip), vehicle: carboxymethylcellulose (CMC)) of the same compound?
The T/C was 115 % of control.

With `NC(CCC(=O)O)C(=O)NC(CO)C(=O)O` (stereo not drawn) (H-Glu-Ser-OH; configuration not given here) as the compound, how does the T/C (dose: 100.0 mg/kg/injection, schedule: Q01DX001 (ip), vehicle: saline with Tween-80) read?
Its T/C is 92 % of control.

And the T/C (dose: 200.0 mg/kg/injection, schedule: Q01DX001 (ip), vehicle: saline with Tween-80)?
The T/C was 89 % of control.

Which T/C (dose: 100.0 mg/kg/injection, schedule: Q01DX009 (ip), vehicle: carboxymethylcellulose (CMC)) does the source give for `CS(=O)(=O)CCCl` here?
Its T/C is 102 % of control and 106 % of control.

And the T/C [1]?
Its T/C is 103 % of control.

What about the T/C (dose: 100.0 mg/kg/injection, schedule: Q04DX002 (ip), vehicle: carboxymethylcellulose (CMC)) of the same compound?
Its T/C is 100 % of control and 109 % of control.

What about the T/C (dose: 100.0 mg/kg/injection, schedule: Q04DX003 (ip), vehicle: carboxymethylcellulose (CMC)) of the same compound?
The T/C was 107 % of control.

And the T/C (dose: 200.0 mg/kg/injection, schedule: Q01DX009 (ip), vehicle: carboxymethylcellulose (CMC))?
The T/C was 98 % of control and 102 % of control.

What about the T/C [2] of the same compound?
The T/C was 103 % of control.

What about the T/C (dose: 200.0 mg/kg/injection, schedule: Q04DX002 (ip), vehicle: carboxymethylcellulose (CMC)) of the same compound?
The T/C was 97 % of control and 98 % of control.

And the T/C (dose: 200.0 mg/kg/injection, schedule: Q04DX003 (ip), vehicle: carboxymethylcellulose (CMC))?
Its T/C is 98 % of control.

What about the T/C [3] of the same compound?
The T/C was 103 % of control.

What about the T/C (dose: 400.0 mg/kg/injection, schedule: Q04DX002 (ip), vehicle: carboxymethylcellulose (CMC)) of the same compound?
Its T/C is 102 % of control and 105 % of control.

What about the T/C (dose: 400.0 mg/kg/injection, schedule: Q04DX003 (ip), vehicle: carboxymethylcellulose (CMC)) of the same compound?
The T/C was 102 % of control.
